# Experiment: Example 1: liver biomarkers (total bilirubin, ALT, AST, ALP) in short bowel syndrome patients, every four weeks for 24 weeks; also sorted by >5% change from baseline
# Type: in vivo, Human
# Conditions: for ALT (SGPT) change from baseline >5%, percent of patients / ALT (SGPT) change from baseline −5% <= and <=5%, number of patients / ALT (SGPT) change from baseline −5% <= and <=5%, percent of patients / AST (SGOT) change from baseline <−5%, number of patients / AST (SGOT) change from baseline <−5%, percent of patients / AST (SGOT) change from baseline >5%, number of patients / AST (SGOT) change from baseline >5%, percent of patients / AST (SGOT) change from baseline −5% <= and <=5%, number of patients / AST (SGOT) change from baseline −5% <= and <=5%, percent of patients / TOTAL BILIRUBIN change from baseline <−5%, number of patients / TOTAL BILIRUBIN change from baseline <−5%, percent of patients / TOTAL BILIRUBIN change from baseline >5%, number of patients / TOTAL BILIRUBIN change from baseline >5%, percent of patients / TOTAL BILIRUBIN change from baseline −5% <= and <=5%, number of patients / TOTAL BILIRUBIN change from baseline −5% <= and <=5%, percent of patients / ALKALINE PHOSPHATASE change from baseline <−5%, number of patients / ALKALINE PHOSPHATASE change from baseline <−5%, percent of patients / ALKALINE PHOSPHATASE change from baseline >5%, number of patients / ALKALINE PHOSPHATASE change from baseline >5%, percent of patients / ALKALINE PHOSPHATASE change from baseline −5% <= and <=5%, number of patients / ALKALINE PHOSPHATASE change from baseline −5% <= and <=5%, percent of patients / ALT (SGPT) change from baseline <−5%, number of patients / ALT (SGPT) change from baseline <−5%, percent of patients / ALT (SGPT) change from baseline >5%, number of patients: 0.1 mg/kg/day
# Experimental: Human patients with short bowel syndrome were divided into three groups: a control group (16 total individuals) to receive placebo, an experimental group (35 total individuals) to receive teduglutide at 0.05 mg/kg/day throughout the study, and an experimental group (32 total individuals) to receive teduglutide at 0.1 mg/kg/day throughout the study. Patients were treated by subcutaneous injection of placebo or the appropriate dose of teduglutide. As individuals with short bowel syndrome are likely to experience associated liver and kidney disease, known biomarkers of liver and kidney function were monitored every four weeks, for 24 weeks. The liver biomarkers tested included total bilirubin, ALT and AST and ALP. The kidney biomarkers tested included urea nitrogen, creatinine and GFR. Before administration of placebo or teduglutide, diagnostic biomarker levels were tested to establish a baseline for each individual.
# To visualize the effect of GLP-2 on the levels of the diagnostic biomarkers, the average change from baseline was calculated for the placebo and teduglutide treated groups for each visit after a baseline was established. The average change from baseline of each group is depicted in FIGS. 1-7. The numerical figures for each diagnostic biomarker at each time point are depicted in Table 1.
# The efficacy of teduglutide in treating liver dysfunction was further tested by sorting the data into two groups: individuals with abnormal baseline values of liver diagnostic biomarkers; and individuals with normal baseline values of liver diagnostic biomarkers. The mean diagnostic biomarker change from baseline for these two groups is shown for ALT (FIGS. 5 and 6) and AST (FIGS. 7 and 8). […] These changes were significant when compared to baseline levels for the group, and when compared to placebo (see FIGS. 5 and 7).
# The raw data for this sorting is reproduced in Table 2 below.
structure (smiles),measurement,setting,value
CC[C@H](C)[C@H](NC(=O)[C@H](Cc1ccccc1)NC(=O)[C@H](CC(=O)O)NC(=O)[C@H](CCCNC(=N)N)NC(=O)[C@H](C)NC(=O)[C@H](C)NC(=O)[C@H](CC(C)C)NC(=O)[C@H](CC(N)=O)NC(=O)[C@H](CC(=O)O)NC(=O)[C@H](CC(C)C)NC(=O)[C@@H](NC(=O)[C@@H](NC(=O)[C@H](CC(N)=O)NC(=O)[C@H](CCSC)NC(=O)[C@H](CCC(=O)O)NC(=O)[C@H](CC(=O)O)NC(=O)[C@H](CO)NC(=O)[C@H](Cc1ccccc1)NC(=O)[C@H](CO)NC(=O)CNC(=O)[C@H](CC(=O)O)NC(=O)CNC(=O)[C@@H](N)Cc1c[nH]cn1)[C@@H](C)O)[C@@H](C)CC)C(=O)N[C@@H](CC(N)=O)C(=O)N[C@@H](Cc1c[nH]c2ccccc12)C(=O)N[C@@H](CC(C)C)C(=O)N[C@H](C(=O)N[C@@H](CCC(N)=O)C(=O)N[C@H](C(=O)N[C@@H](CCCCN)C(=O)N[C@H](C(=O)N[C@H](C(=O)N[C@@H](CC(=O)O)C(=O)O)[C@@H](C)O)[C@@H](C)CC)[C@@H](C)O)[C@@H](C)CC [teduglutide],"ALT (SGPT) change from baseline >5%, percent of patients",week 12,(21.9%)
same,"ALT (SGPT) change from baseline −5% <= and <=5%, number of patients",week 12,2
same,"ALT (SGPT) change from baseline −5% <= and <=5%, percent of patients",week 12,(6.3%)
same,"AST (SGOT) change from baseline <−5%, number of patients",week 12,15
same,"AST (SGOT) change from baseline <−5%, percent of patients",week 12,(46.9%)
same,"AST (SGOT) change from baseline >5%, number of patients",week 12,10
same,"AST (SGOT) change from baseline >5%, percent of patients",week 12,(31.3%)
same,"AST (SGOT) change from baseline −5% <= and <=5%, number of patients",week 12,3
same,"AST (SGOT) change from baseline −5% <= and <=5%, percent of patients",week 12,(9.4%)
same,"TOTAL BILIRUBIN change from baseline <−5%, number of patients",week 12,14
same,"TOTAL BILIRUBIN change from baseline <−5%, percent of patients",week 12,(43.8%)
same,"TOTAL BILIRUBIN change from baseline >5%, number of patients",week 12,9
same,"TOTAL BILIRUBIN change from baseline >5%, percent of patients",week 12,(28.1%)
same,"TOTAL BILIRUBIN change from baseline −5% <= and <=5%, number of patients",week 12,6
same,"TOTAL BILIRUBIN change from baseline −5% <= and <=5%, percent of patients",week 12,(18.8%)
same,"ALKALINE PHOSPHATASE change from baseline <−5%, number of patients",week 16,21
same,"ALKALINE PHOSPHATASE change from baseline <−5%, percent of patients",week 16,(65.6%)
same,"ALKALINE PHOSPHATASE change from baseline >5%, number of patients",week 16,7
same,"ALKALINE PHOSPHATASE change from baseline >5%, percent of patients",week 16,(21.9%)
same,"ALKALINE PHOSPHATASE change from baseline −5% <= and <=5%, number of patients",week 16,2
same,"ALKALINE PHOSPHATASE change from baseline −5% <= and <=5%, percent of patients",week 16,(6.3%)
same,"ALT (SGPT) change from baseline <−5%, number of patients",week 16,19
same,"ALT (SGPT) change from baseline <−5%, percent of patients",week 16,(59.4%)
same,"ALT (SGPT) change from baseline >5%, number of patients",week 16,9
same,"ALT (SGPT) change from baseline >5%, percent of patients",week 16,(28.1%)
same,"ALT (SGPT) change from baseline −5% <= and <=5%, number of patients",week 16,2
same,"ALT (SGPT) change from baseline −5% <= and <=5%, percent of patients",week 16,(6.3%)
same,"AST (SGOT) change from baseline <−5%, number of patients",week 16,18
same,"AST (SGOT) change from baseline <−5%, percent of patients",week 16,(56.3%)
same,"AST (SGOT) change from baseline >5%, number of patients",week 16,8
same,"AST (SGOT) change from baseline >5%, percent of patients",week 16,(25.0%)
same,"AST (SGOT) change from baseline −5% <= and <=5%, number of patients",week 16,3
same,"AST (SGOT) change from baseline −5% <= and <=5%, percent of patients",week 16,(9.4%)
same,"TOTAL BILIRUBIN change from baseline <−5%, number of patients",week 16,14
same,"TOTAL BILIRUBIN change from baseline <−5%, percent of patients",week 16,(43.8%)
same,"TOTAL BILIRUBIN change from baseline >5%, number of patients",week 16,6
same,"TOTAL BILIRUBIN change from baseline >5%, percent of patients",week 16,(18.8%)
same,"TOTAL BILIRUBIN change from baseline −5% <= and <=5%, number of patients",week 16,8
same,"TOTAL BILIRUBIN change from baseline −5% <= and <=5%, percent of patients",week 16,(25.0%)
same,"ALKALINE PHOSPHATASE change from baseline <−5%, number of patients",week 20,19
same,"ALKALINE PHOSPHATASE change from baseline <−5%, percent of patients",week 20,(59.4%)
same,"ALKALINE PHOSPHATASE change from baseline >5%, number of patients",week 20,9
same,"ALKALINE PHOSPHATASE change from baseline >5%, percent of patients",week 20,(28.1%)
same,"ALKALINE PHOSPHATASE change from baseline −5% <= and <=5%, number of patients",week 20,1
same,"ALKALINE PHOSPHATASE change from baseline −5% <= and <=5%, percent of patients",week 20,(3.1%)
same,"ALT (SGPT) change from baseline <−5%, number of patients",week 20,19
same,"ALT (SGPT) change from baseline <−5%, percent of patients",week 20,(59.4%)
same,"ALT (SGPT) change from baseline >5%, number of patients",week 20,8
same,"ALT (SGPT) change from baseline >5%, percent of patients",week 20,(25.0%)
same,"ALT (SGPT) change from baseline −5% <= and <=5%, number of patients",week 20,2
same,"ALT (SGPT) change from baseline −5% <= and <=5%, percent of patients",week 20,(6.3%)
same,"AST (SGOT) change from baseline <−5%, number of patients",week 20,16
same,"AST (SGOT) change from baseline <−5%, percent of patients",week 20,(50.0%)
same,"AST (SGOT) change from baseline >5%, number of patients",week 20,9
same,"AST (SGOT) change from baseline >5%, percent of patients",week 20,(28.1%)
same,"AST (SGOT) change from baseline −5% <= and <=5%, number of patients",week 20,3
same,"AST (SGOT) change from baseline −5% <= and <=5%, percent of patients",week 20,(9.4%)
same,"TOTAL BILIRUBIN change from baseline <−5%, number of patients",week 20,14
same,"TOTAL BILIRUBIN change from baseline <−5%, percent of patients",week 20,(43.8%)
same,"TOTAL BILIRUBIN change from baseline >5%, number of patients",week 20,9
same,"TOTAL BILIRUBIN change from baseline >5%, percent of patients",week 20,(28.1%)
same,"TOTAL BILIRUBIN change from baseline −5% <= and <=5%, number of patients",week 20,6
same,"TOTAL BILIRUBIN change from baseline −5% <= and <=5%, percent of patients",week 20,(18.8%)
same,"ALKALINE PHOSPHATASE change from baseline <−5%, number of patients",week 24,20
same,"ALKALINE PHOSPHATASE change from baseline <−5%, percent of patients",week 24,(62.5%)
same,"ALKALINE PHOSPHATASE change from baseline >5%, number of patients",week 24,5
same,"ALKALINE PHOSPHATASE change from baseline >5%, percent of patients",week 24,(15.6%)
same,"ALKALINE PHOSPHATASE change from baseline −5% <= and <=5%, number of patients",week 24,4
same,"ALKALINE PHOSPHATASE change from baseline −5% <= and <=5%, percent of patients",week 24,(12.5%)
same,"ALT (SGPT) change from baseline <−5%, number of patients",week 24,18
same,"ALT (SGPT) change from baseline <−5%, percent of patients",week 24,(56.3%)
same,"ALT (SGPT) change from baseline >5%, number of patients",week 24,11
same,"ALT (SGPT) change from baseline >5%, percent of patients",week 24,(34.4%)
same,"ALT (SGPT) change from baseline −5% <= and <=5%, number of patients",week 24,0
same,"ALT (SGPT) change from baseline −5% <= and <=5%, percent of patients",week 24,(0.0%)
same,"AST (SGOT) change from baseline <−5%, number of patients",week 24,15
same,"AST (SGOT) change from baseline <−5%, percent of patients",week 24,(46.9%)
same,"AST (SGOT) change from baseline >5%, number of patients",week 24,11
same,"AST (SGOT) change from baseline >5%, percent of patients",week 24,(34.4%)
same,"AST (SGOT) change from baseline −5% <= and <=5%, number of patients",week 24,3
same,"AST (SGOT) change from baseline −5% <= and <=5%, percent of patients",week 24,(9.4%)
same,"TOTAL BILIRUBIN change from baseline <−5%, number of patients",week 24,11
same,"TOTAL BILIRUBIN change from baseline <−5%, percent of patients",week 24,(34.4%)
same,"TOTAL BILIRUBIN change from baseline >5%, number of patients",week 24,10
same,"TOTAL BILIRUBIN change from baseline >5%, percent of patients",week 24,(31.3%)
same,"TOTAL BILIRUBIN change from baseline −5% <= and <=5%, number of patients",week 24,6
same,"TOTAL BILIRUBIN change from baseline −5% <= and <=5%, percent of patients",week 24,(18.8%)
same,fraction of individuals with a decrease of more than 5% in ALT vs placebo,beginning at 4 weeks after the commencement of treatment,greater fraction of individuals experiencing a decrease of more than 5%
same,ALT and AST change from baseline in patients with abnormal baseline values (FIGS. 5 and 7),compared to baseline and compared to placebo,statistically significant improvements
same,average level of ALP relative to baseline (FIG. 4),groups receiving teduglutide,decreased relative to baseline for the entire period of the study
same,percent of individuals with an increase of greater than 5% in ALP or ALT vs placebo,groups receiving teduglutide,effective prophylactic against increases in biomarkers associated with liver dysfunction
same,individuals experiencing a decrease in ALP greater than 5% from baseline,"groups receiving teduglutide, within 4 weeks of the beginning of treatment",roughly 60%
same,average decrease in level of ALT compared to baseline (FIG. 1),"groups receiving teduglutide, maintained for the entire duration of the study",about 10 U/L

# Source: US20130157954A1, “METHODS FOR TREATMENT OR PROPHYLAXIS OF KIDNEY OR LIVER DYSFUNCTION” (NPS PHARMACEUTICALS, INC., priority 2010, published 2013)
